Experimental findings from US20100311748A1, “HETEROCYCLIC AMIDES USEFUL FOR THE TREATMENT OF CANCER AND PSORIASIS” (ASTRAZENECA AB, priority 2007, published 2010) are described below.

This assay has as its system Hedgehog pathway. Kind of assay: Hedgehog Pathway Cellular Differentiation Assay (alkaline phosphatase production in C3H10T1/2 cells with Shh ligand). The following applies: Mus musculus, C3H 10T1/2, 3 μM compound, Shh ligand conditioned media, 72 h, alkaline phosphatase. In kind it is cell-based. As to the method:
Hedgehog Pathway Cellular Differentiation Assay The ability of compounds of the invention to inhibit the Hedgehog pathway can be determined by the following cell differentiation assay. C3H10T1/2 cells were plated into 384 well plates at a concentration of 5000 cells/well in DMEM/10% FBS. The following day the media was changed to 20% conditioned media (low serum media DMEM/2% FBS+Shh ligand). Compounds were solubilized in 100% DMSO to a concentration of 10 mM and then serially diluted three fold in 100% DMSO. The highest concentration in the cell plate was 30 μM and the lowest was 3 nM. The compounds were then added to the cells. Cell plates were incubated with the compound for 72 h and then assayed for alkaline phosphatase production using pNp as a substrate. Briefly, after 72 h of incubation, the media was aspirated from the cells and washed with 30 μl of PBS. PBS was aspirated off the cells and 15 μl of 1×RIPA cell lysis buffer is added on to the cells. The cell plates are then incubated at −80° C. for 30 minutes to insure proper cell lysis. The plates were then thawed back to RT. The substrate solution containing pNp at 1 mg/mL in diethanolamine buffer pH 9.8 was then added onto the lysed cells. The plates were incubated at 30° C. for color development and read at an absorbance of 405 nm. The percent inhibition and IC50 value was then calculated from the absorbance data using standard procedures.
In the case of `Cc1ccc(-c2ncc(C(F)(F)F)[nH]2)cc1NC(=O)c1ccc(OCc2ccccn2)cc1` [Example 28, N-{2-methyl-5-[5-(trifluoromethyl)-1H-imidazol-2-yl]phenyl}-4-(pyridin-2-ylmethoxy)benzamide], the inhibition (as a rule, the change of the read-out against control, counted positive when it falls) at 3 µM is 91.9%.

As to `Cc1cc(C)c(-c2cn(C)cn2)cc1NC(=O)c1ccc(OCc2ccccn2)cn1` [Example 113, N-(2,4-dimethyl-5-(1-methyl-1H-imidazol-4-yl)phenyl)-5-(pyridin-2-ylmethoxy)picolinamide], the inhibition at 3 µM was found to be 84.7%.

Regarding `Cc1ccc(-c2nnc(C)n2C)cc1NC(=O)c1ccc(OCc2ccccn2)cc1` [Example 39, N-(5-(4,5-dimethyl-4H-1,2,4-triazol-3-yl)-2-methylphenyl)-4-(pyridin-2-ylmethoxy)benzamide], the inhibition at 3 µM came to 7.8%.

Turning to `Cc1ccc(-c2cnc(N)cn2)cc1NC(=O)c1ccc(OCc2ccccn2)cc1` [Example 10, N-[5-(5-aminopyrazin-2-yl)-2-methyl-phenyl]-4-(pyridin-2-ylmethoxy)benzamide], the inhibition at 3 µM turned out to be 63.5%.

With `COc1cc(COc2ccc(C(=O)Nc3cc(-c4nc(C)c[nH]4)ccc3C)cc2)cc(OC)c1` [Example 43, 4-[(3,5-dimethoxyphenyl)methoxy]-N-[2-methyl-5-(4-methyl-1H-imidazol-2-yl)phenyl]benzamide], the inhibition at 3 µM stood at 81.4%.

Turning to `Cc1ccc(-c2nccn2C)cc1NC(=O)c1ccc(OCc2cc(OCC3CC3)ccn2)cc1` [Example 98, 4-{[4-(cyclopropylmethoxy)pyridin-2-yl]methoxy}-N-[2-methyl-5-(1-methyl-1H-imidazol-2-yl)phenyl]benzamide], the inhibition at 3 µM amounted to 78.4%.

In the case of `Cc1ccc(-c2ncc[nH]2)cc1NC(=O)c1ccc(OCc2ccc(CO)cc2)cc1` [Example 62, 4-{[4-(hydroxymethyl)benzyl]oxy}-N-[5-(1H-imidazol-2-yl)-2-methylphenyl]benzamide], the inhibition at 3 µM was determined as 76.9%.

For the compound `Cc1ccc(-c2nc3ccccc3[nH]2)cc1NC(=O)c1ccc(OCc2ccccn2)cc1` [Example 30, N-[5-(1H-benzoimidazol-2-yl)-2-methyl-phenyl]-4-(pyridin-2-ylmethoxy)benzamide], the inhibition at 3 µM came to 80.1%.

Turning to `Cc1ccc(-c2ncc[nH]2)cc1NC(=O)c1ccc(NCc2ccccn2)cc1` [Example 117, N-(5-(1H-imidazol-2-yl)-2-methylphenyl)-4-(pyridin-2-ylmethylamino)benzamide], the inhibition at 3 µM is 68.8%.

For `Cc1ccc(-c2cc(C(F)(F)F)n[nH]2)cc1NC(=O)c1ccc(OCc2ccccn2)cc1` [Example 37, N-[2-methyl-5-[5-(trifluoromethyl)-2H-pyrazol-3-yl]phenyl]-4-(pyridin-2-ylmethoxy)benzamide], the inhibition at 3 µM was found to be 38.2%.

`Cc1ccc(-c2ncc[nH]2)cc1NC(=O)c1ccc(OCc2ncccc2N2CCN(C)CC2)cc1` [Example 138, N-(5-(1H-imidazol-2-yl)-2-methylphenyl)-4-((3-(4-methylpiperazin-1-yl)pyridin-2-yl)methoxy)benzamide]: the inhibition at 3 µM was determined as 42.2%.

On to `Cc1ccc(-c2ncc(C)n2C)cc1NC(=O)c1ccc(OCc2ccccc2C#N)cc1` [Example 49, 4-[(2-cyanophenyl)methoxy]-N-[5-(1,5-dimethylimidazol-2-yl)-2-methyl-phenyl]benzamide], for which the inhibition at 3 µM was 82%.

As for `Cc1ccc(-c2ncc[nH]2)cc1NC(=O)c1ccc(OCc2ccccn2)nc1` [Example 111, N-[5-(1H-imidazol-2-yl)-2-methylphenyl]-6-(pyridin-2-ylmethoxy)pyridine-3-carboxamide], the inhibition at 3 µM was -0.1%.

On to `Cc1nc(C)c(-c2ccc(C)c(NC(=O)c3ccc(OCc4ccccn4)cc3)c2)s1` [Example 32, N-[5-(2,4-dimethyl1,3-thiazol-5-yl)-2-methyl-phenyl]-4-(pyridin-2-ylmethoxy)benzamide], for which the inhibition at 3 µM was 54.1%.

For the compound `Cc1ccc(-c2ncc[nH]2)cc1NC(=O)c1ccc(OCc2ccccc2C#N)cc1` [Example 46, 4-[(2-cyanophenyl)methoxy]-N-[5-(1H-imidazol-2-yl)-2-methyl-phenyl]benzamide], the inhibition at 3 µM was 81.9%.

With `Cc1nc(-c2ccc(C)c(NC(=O)c3ccc(OCc4ccccn4)cc3)c2)no1` [Example 40, N-(2-methyl-5-(5-methyl-1,2,4-oxadiazol-3-yl)phenyl)-4-(pyridin-2-ylmethoxy)benzamide], the inhibition at 3 µM came out at 6.5%.

With `Cc1ccc(-c2nccn2C)cc1NC(=O)c1ccc(OCc2cc(F)ccc2C#N)cc1` [Example 101, 4-[(2-cyano-5-fluorobenzyl)oxy]-N-[2-methyl-5-(1-methyl-1H-imidazol-2-yl)phenyl]benzamide], the inhibition at 3 µM was determined as 83.5%.

Turning to `Cc1ccc(-c2nccn2C)cc1NC(=O)c1ccc(OCc2ccc(F)cc2C#N)cc1` [Example 100, 4-[(2-cyano-4-fluorobenzyl)oxy]-N-[2-methyl-5-(1-methyl-1H-imidazol-2-yl)phenyl]benzamide], the inhibition at 3 µM came out at 82.7%.

For `COc1ccnc(COc2ccc(C(=O)Nc3cc(-c4nccn4C)ccc3C)cc2)c1` [Example 93, 4-[(4-methoxypyridin-2-yl)methoxy]-N-[2-methyl-5-(1-methyl-1H-imidazol-2-yl)phenyl]benzamide], the inhibition at 3 µM came to 79.9%.

As for `Cc1ccc(-c2ncc[nH]2)cc1NC(=O)c1ccc(NC(C)c2ccccn2)cc1` (stereo not shown) [Example 118, N-[5-(1H-imidazol-2-yl)-2-methylphenyl]-4-[(1-pyridin-2-ylethyl)amino]benzamide], the inhibition at 3 µM worked out at 75.4%.

Take `Cc1ccc(-c2nc3cc([N+](=O)[O-])ccc3[nH]2)cc1NC(=O)c1ccc(OCc2ccccn2)cc1` [Example 14, N-[2-methyl-5-(5-nitro-1H-benzoimidazol-2-yl)phenyl]-4-(pyridin-2-ylmethoxy)benzamide]: the inhibition at 3 µM is 79.2%.

In the case of `Cc1ccc(-c2ncc[nH]2)cc1NC(=O)c1ccc(OCc2ccc(F)cc2)cc1` [Example 59, 4-[(4-Fluorophenyl)methoxy]-N-[5-(1H-imidazol-2-yl)-2-methylphenyl]benzamide], the inhibition at 3 µM stood at 82.5%.

Turning to `Cc1ccc(-c2ncc[nH]2)cc1NC(=O)c1ccc(OCc2cccc(N(C)C)n2)cc1` [Example 125, N-(5-(1H-imidazol-2-yl)-2-methylphenyl)-4-((6-(dimethylamino)pyridin-2-yl)methoxy)benzamide], the inhibition at 3 µM stood at 76.7%.

In the case of `Cc1ccc(-c2cccc(N)n2)cc1NC(=O)c1ccc(OCc2ccccn2)cc1` [Example 8, N-[5-(6-aminopyridin-2-yl)-2-methyl-phenyl]-4-(pyridin-2-ylmethoxy)benzamide], the inhibition at 3 µM was 66.5%.

`Cc1ccc(-c2ncc[nH]2)cc1NC(=O)c1ccc(OCc2ccccc2C(F)(F)F)cc1` [Example 64, N-[5-(1H-imidazol-2-yl)-2-methylphenyl]-4-{[2-(trifluoromethyl)benzyl]oxy}benzamide]: the inhibition at 3 µM was determined as 79.6%.

As to `Cc1ccc(-c2ncc[nH]2)cc1NC(=O)c1ccc(OCc2cc(N3CCN(C)CC3)ccn2)cc1` [Example 126, N-[5-(1H-imidazol-2-yl)-2-methylphenyl]-4-{[4-(4-methylpiperazin-1-yl)pyridin-2-yl]methoxy}benzamide], the inhibition at 3 µM turned out to be 47.2%.

For the compound `Cc1ccc(-c2ncc[nH]2)cc1NC(=O)c1ccc(NCc2ccc(N3CCOCC3)cn2)cc1` [Example 140, N-(5-(1H-imidazol-2-yl)-2-methylphenyl)-4-((5-morpholinopyridin-2-yl)methylamino)benzamide], the inhibition at 3 µM was determined as 85.5%.

For the compound `Cc1ccc(-c2ncc[nH]2)cc1NC(=O)c1ccc(OCc2cccc(Br)n2)cc1` [Example 119, N-(5-(1H-imidazol-2-yl)-2-methylphenyl)-4-((6-bromopyridin-2-yl)methoxy)benzamide], the inhibition at 3 µM was determined as 92.4%.

Take `Cc1ccc(-c2ncc[nH]2)cc1NC(=O)c1ccc(OCc2ccccc2)cc1` [Example 58, N-(5-(1H-imidazol-2-yl)-2-methylphenyl)-4-(benzyloxy)benzamide]: the inhibition at 3 µM worked out at 86.2%.

With `Cc1cc(Cl)c(-c2nccn2C)cc1NC(=O)c1ccc(OCc2ccccn2)cc1` [Example 74, N-[4-chloro-2-methyl-5-(1-methyl-1H-imidazol-2-yl)phenyl]-4-(pyridin-2-ylmethoxy)benzamide], the inhibition at 3 µM came out at 76.2%.

Regarding `Cc1ccc(-c2ncc[nH]2)cc1NC(=O)c1cccc(N(C)C)c1` [Example 148, 3-dimethylamino-N-[5-(1H-imidazol-2-yl)-2-methyl-phenyl]benzamide], the inhibition at 3 µM was 9.1%.

On to `Cc1ccc(-c2ncc[nH]2)cc1NC(=O)c1ccc(CCc2ccccn2)cc1` [Example 108, N-[5-(1H-imidazol-2-yl)-2-methylphenyl]-4-(2-pyridin-2-ylethyl)benzamide], for which the inhibition at 3 µM is 92.4%.

Regarding `Cc1ccc(-c2ncc[nH]2)cc1NC(=O)c1ccc(OCc2cc(N3CCOCC3)ccn2)cc1` [Example 89, N-[5-(1H-imidazol-2-yl)-2-methylphenyl]-4-[(4-morpholin-4-ylpyridin-2-yl)methoxy]benzamide], the inhibition at 3 µM amounted to 72.7%.

For `COc1ccc(C(=O)Nc2cc(-c3ncc[nH]3)ccc2C)cc1OC` [Example 154, N-[5-(1H-imidazol-2-yl)-2-methyl-phenyl]-3,4-dimethoxy-benzamide], the inhibition at 3 µM was 17.6%.
